Data as given in patent publication US20130011393A1, “BAD PATHWAY GENE SIGNATURE” (priority 2010, published 2013).

How the values were obtained:
Type in all cases: cell-based, human
[1] = system: OVCA cell lines (A2780S, A2780CP, A2008, C13); test: Cisplatin-resistance by CellTiter-96 MTS proliferation assay in serially cisplatin-treated OVCA cell lines; settings: after in vitro cisplatin-treatment/expansion cycles versus cells prior to serial cisplatin treatment
Method: Acquisition and culture conditions for the expansion of OVCA cells lines (T8, OVCAR5, OV2008, IGROV1, C13, A2780S, A2780CP, and A2008) were reported previouslyl^10. Cells were subjected to sequential treatment with increasing doses of cis-diammine-dichloroplatinum (cisplatin), using three dosing schedules resulting in […] treatment/expansion cycles. Treatment schedules A, B, and C included three treatments with 1, 2, and 3 μg/mL cisplatin, respectively, followed by three treatments with 3, 4, and 5 μg/mL, respectively. Each cisplatin treatment was followed by a cell recovery/expansion phase. Both cisplatin-resistance and genome-wide expression changes were measured serially in each cell line at baseline and after 3 and 6 cisplatin-treatment/expansion cycles. Cisplatin-resistance was quantified using CellTiter-96 MTS proliferation assays (Fisher Scientific) and analyzed genome-wide expression using Affymetrix Human U133 Plus 2.0 GeneChips as previously described^10,11 (Gene Expression Omnibus (GEO) accession number GSE23553).
Many of the BAD-pathway genes found to be associated with evolution of in vitro cisplatin-resistance are known to influence BAD phosphorylation (FIG. 12). The inventors therefore tested the hypothesis that BAD-phosphorylation status is associated with OVCA cisplatin-resistance. […]

A2780S and A2780CP cells = test: Apoptotic nuclei after cisplatin in cells transfected with BAD phosphorylation-site mutants; settings: 1 μM (A2780S) or 10 μM (A2780CP) cisplatin, 48 hours
Method: (§1) In FIGS. 14A and 14B, OVCA cell lines A2780S and A2780CP, respectively, were transfected with Flag vectors expressing wild-type BAD (WT) or BAD harboring serine (S) to alanine point mutations in serine-112, -136, or -155 (S112A, S136A, S155A). These S to A phosphorylation site mutations prevent phosphorylation of the BAD protein. Transfected cells were treated with vehicle or 1 μM (A2780S) or 10 μM (A2780CP) cisplatin for 48 hours and evaluated for the presence of apoptotic nuclei. FIG. 14C is a Western blot showing depletion of PP2C and PKA by siRNA. Controls included a non-targeting siRNA (NT). GAPDH was used as a loading control. […] Error bars indicate standard error of the mean.
(§2) RNA duplexes for PP2C/PPM1A (s10909 from ABI), cAMP-dependent protein kinase (PKA; 6406 from Cell Signaling), and vectors containing mutated BAD (pFlag-600, a kind gift from Dr. Hong Gang Wang, MCC) were transfected using the Nucleofector transfection kit, with non-targeting Silencer negative control #2 siRNA (ABI), according to manufacturer's protocols (Amaxa).
(§3) Morphologic assessment of condensed chromatin and fragmented DNA quantified percent apoptotic nuclei. Cells were fixed in 4% paraformaldehyde, and nuclei were stained with bis-benzimide trihydrochloride (0.5 μg/ml; Molecular Probes) and quantified using fluorescence microscopyl^5.

A2780S cells = test: Apoptotic nuclei after cisplatin following siRNA depletion of PKA or PP2C/PPM1A; settings: 1 μM cisplatin
Method: as §1, §2, §3

N.N.[Cl][Pt][Cl] [cisplatin, cis-diammine-dichloroplatinum]
cisplatin EC50 [1]: higher
cisplatin sensitivity (apoptotic nuclei) (A2780S and A2780CP cells; cells transfected with BAD[112A]): no effect
cisplatin-induced apoptosis (apoptotic nuclei) (A2780S and A2780CP cells; cells transfected with BAD[S136A], BAD[S155A] versus wild-type BAD): increased
cisplatin-induced apoptosis (percent apoptotic nuclei) (A2780S cells; siRNA depletion of PKA versus non-targeting control siRNA): increased
cisplatin-induced apoptosis (percent apoptotic nuclei) (A2780S cells; siRNA depletion of PP2C/PPM1A): decreased
